Type in all cases: cell-based
In one assay the target is T1, hCTR T295A (Homo sapiens, UniProt P30988, T295A).
T1 construct: c-Myc (N); expressed in transfected cells
T1 sequence (P30988 25-474 T295A): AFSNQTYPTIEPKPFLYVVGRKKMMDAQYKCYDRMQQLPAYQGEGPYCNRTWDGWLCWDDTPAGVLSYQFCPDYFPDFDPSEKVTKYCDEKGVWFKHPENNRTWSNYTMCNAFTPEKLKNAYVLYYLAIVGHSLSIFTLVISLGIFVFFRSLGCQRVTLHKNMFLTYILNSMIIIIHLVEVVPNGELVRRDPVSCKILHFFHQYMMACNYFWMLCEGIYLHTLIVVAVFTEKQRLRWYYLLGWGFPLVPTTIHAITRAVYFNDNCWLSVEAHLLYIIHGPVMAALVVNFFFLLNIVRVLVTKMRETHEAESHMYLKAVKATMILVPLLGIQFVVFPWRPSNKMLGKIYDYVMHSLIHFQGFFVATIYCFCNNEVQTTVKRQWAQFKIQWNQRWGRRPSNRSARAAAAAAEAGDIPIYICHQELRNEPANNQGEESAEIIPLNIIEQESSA
In words: IP1 accumulation. As to conditions: mean ± S.E.M.; for Emax: IP1 maximal response, SEM. How it is done:
(§1) Cells (2.5 × 10^4 cells/well) were plated into 96 well trays and cultured overnight. Cells were stimulated with increasing concentration of ligands for 60 min in the presence of LiCl. Samples were lysed and endogenous IP1 was measured using an IP-One HTRF® assay kit (CisBio) as specified by the manufacturer. Data were normalized to the maximal response elicited by 100 μM of ATP.
(§2) Data were corrected for radioligand occupancy using the Cheng-Prusoff equation in Prism; as such data are reported as pKi. Emax and EC50 were estimated from concentration-response curves using with a 3-parameter logistic equation in Prism (v7). These values are a composite of functional affinity, efficacy and stimulus response coupling. […] Significance was accepted at P < 0.05.

The target in a further assay is T2, hCTR N288A (Homo sapiens, UniProt P30988, N288A).
T2 construct: expressed in transfected cells
T2 sequence (P30988 25-474 N288A): T1 sequence (P30988 25-474 T295A) with N264A, A271T
The assay is described as follows: IP1 accumulation. The note with it: mean ± S.E.M.; for Emax: IP1 maximal response, SEM. How it is done:
as §1, §2

In a further assay the target is T3, hCTR I279A (Homo sapiens, UniProt P30988, I279A).
T3 construct: expressed in transfected cells
T3 sequence (P30988 25-474 I279A): T1 sequence (P30988 25-474 T295A) with I255A, A271T
The assay is described as follows: IP1 accumulation. As to conditions: mean ± S.E.M.; for Emax: IP1 maximal response, SEM. How it is done:
as §1, §2

Another assay concerns the target T4, hCTR L368A (Homo sapiens, UniProt P30988, L368A).
T4 construct: c-Myc (N); expressed in transfected cells
T4 sequence (P30988 25-474 L368A): T1 sequence (P30988 25-474 T295A) with A271T, L344A
The assay is described as follows: ERK1/2 phosphorylation. The note with it: CV1-FlpIn cells, mean ± S.E.M.; for Emax: pERK maximal response; for EC50: pERK, three-parameter logistic fit. The gist of the method: (§3)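 Cells were seeded at 2.5 × 10^4 cells/well and cultured overnight before stimulation. ERK1/2 phosphorylation was normalized to the maximal response to 10% FBS measured at 6 min. EC50 and Emax came from a 3-parameter logistic fit of concentration-response curves.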

The next assay deals with T5, hCTR M367A (Homo sapiens, UniProt P30988, M367A).
T5 construct: c-Myc (N); expressed in transfected cells
T5 sequence (P30988 25-474 M367A): T1 sequence (P30988 25-474 T295A) with A271T, M343A
In words: ERK1/2 phosphorylation. As to conditions: CV1-FlpIn cells, mean ± S.E.M.; for Emax: pERK maximal response; for EC50: pERK, three-parameter logistic fit. The gist of the method:
as §3

[1] abbreviates: IP1, CV1-FlpIn cells, 60 min, LiCl.

Changes are numbered by the printed parent chain. Where a SMILES comes first, the peptide text is derived from it. Bridges are numbered along the chain shown (N, C = ends).

On to `CC(C)C[C@H](NC(=O)[C@H](CCCCN)NC(=O)CNC(=O)[C@H](CC(C)C)NC(=O)[C@@H](NC(=O)[C@@H]1CSSC[C@H](N)C(=O)N[C@@H](CO)C(=O)N[C@@H](CC(N)=O)C(=O)N[C@@H](CC(C)C)C(=O)N[C@@H](CO)C(=O)N[C@@H]([C@@H](C)O)C(=O)N1)C(C)C)C(=O)N[C@@H](CO)C(=O)N[C@@H](CCC(N)=O)C(=O)N[C@@H](CCC(=O)O)C(=O)N[C@@H](CC(C)C)C(=O)N[C@@H](Cc1c[nH]cn1)C(=O)N[C@@H](CCCCN)C(=O)N[C@@H](CC(C)C)C(=O)N[C@@H](CCC(N)=O)C(=O)N[C@H](C(=O)N[C@@H](Cc1ccc(O)cc1)C(=O)N1CCC[C@H]1C(=O)N[C@@H](CCCNC(=N)N)C(=O)N[C@H](C(=O)N[C@@H](CC(N)=O)C(=O)N[C@H](C(=O)NCC(=O)N[C@@H](CO)C(=O)NCC(=O)N[C@H](C(=O)N1CCC[C@H]1C(N)=O)[C@@H](C)O)[C@@H](C)O)[C@@H](C)O)[C@@H](C)O` [sCT], for which the Emax (commonly the size of the effect at its maximum, as opposed to the concentration needed) at hCTR T295A is 53 ± 7%; on hCTR N288A, 119 ± 6%; at hCTR I279A it was 97 ± 7%; on hCTR L368A, 140 ± 6%; at hCTR M367A, 130 ± 4%.
As for `CSCC[C@H](NC(=O)CNC(=O)[C@H](CO)NC(=O)[C@H](Cc1ccccc1)NC(=O)[C@H](CCCNC(=N)N)NC(=O)[C@H](Cc1c[nH]cn1)NC(=O)[C@H](Cc1ccccc1)NC(=O)[C@H](CC(N)=O)NC(=O)[C@H](CC(N)=O)NC(=O)[C@H](CC(C)C)NC(=O)[C@H](CC(N)=O)NC(=O)[C@H](CCCNC(=N)N)NC(=O)[C@H](Cc1c[nH]c2ccccc12)NC(=O)[C@H](Cc1ccc(O)cc1)NC(=O)[C@H](C)NC(=O)[C@H](CO)NC(=O)[C@H](CC(C)C)NC(=O)[C@@H](NC(=O)[C@@H]1CSSC[C@H](N)C(=O)N[C@@H](CO)C(=O)N[C@@H](CC(N)=O)C(=O)N[C@@H](CC(C)C)C(=O)N[C@@H](CO)C(=O)N[C@@H]([C@@H](C)O)C(=O)N1)C(C)C)C(=O)NCC(=O)N[C@@H](Cc1ccccc1)C(=O)NCC(=O)N1CCC[C@H]1C(=O)N[C@@H](CCC(=O)O)C(=O)N[C@H](C(=O)N1CCC[C@H]1C(N)=O)[C@@H](C)O` [pCT] (H-CSNLSTCVLSAYWRNLNNFHRFSGMGFGPETP-NH2; disulfide 1-7), the EC50 (in general, the concentration at which the effect is half-maximal) is 4.57 nM at hCTR T295A (setting [1]); 1.91 nM at hCTR N288A (setting [1]); 6.61 nM on hCTR I279A (setting [1]); 1.95 nM at hCTR L368A; 2.75 nM at hCTR M367A. Moreover, the Emax on hCTR T295A stood at 56 ± 7%; on hCTR N288A, 93 ± 7%; on hCTR I279A it was 116 ± 10%; on hCTR L368A it was 159 ± 11%; at hCTR M367A, 172 ± 10%.
Consider `CC(C)C[C@H](NC(=O)[C@H](CC(N)=O)NC(=O)[C@H](CC(N)=O)NC(=O)[C@H](CO)NC(=O)[C@H](CO)NC(=O)[C@H](CCCNC(=N)N)NC(=O)[C@@H](NC(=O)[C@H](CC(C)C)NC(=O)[C@H](Cc1ccccc1)NC(=O)[C@H](CC(N)=O)NC(=O)[C@H](C)NC(=O)[C@H](CC(C)C)NC(=O)[C@H](CCCNC(=N)N)NC(=O)[C@H](CCC(N)=O)NC(=O)[C@@H](NC(=O)[C@H](C)NC(=O)[C@@H]1CSSC[C@H](NC(=O)[C@@H](N)CCCCN)C(=O)N[C@@H](CC(N)=O)C(=O)N[C@@H]([C@@H](C)O)C(=O)N[C@@H](C)C(=O)N[C@@H]([C@@H](C)O)C(=O)N1)[C@@H](C)O)C(C)C)C(=O)NCC(=O)N1CCC[C@H]1C(=O)N[C@H](C(=O)N[C@@H](CC(C)C)C(=O)N1CCC[C@H]1C(=O)N1CCC[C@H]1C(=O)N[C@H](C(=O)N[C@@H](CC(N)=O)C(=O)N[C@H](C(=O)NCC(=O)N[C@@H](CO)C(=O)N[C@@H](CC(N)=O)C(=O)N[C@H](C(=O)N[C@@H](Cc1ccc(O)cc1)C(N)=O)[C@@H](C)O)C(C)C)[C@@H](C)O)C(C)C` [rAmy], for which the results for the Emax at hCTR L368A and at hCTR M367A were 82 ± 8% and 77 ± 5%, respectively.
At hCTR L368A, `CC(C)C[C@H](NC(=O)CNC(=O)[C@H](C)NC(=O)[C@H](CC(C)C)NC(=O)[C@H](CCCNC(=N)N)NC(=O)[C@H](Cc1cnc[nH]1)NC(=O)[C@@H](NC(=O)[C@@H](NC(=O)[C@@H]1CSSC[C@H](NC(=O)[C@H](C)N)C(=O)N[C@@H](CC(=O)O)C(=O)N[C@@H]([C@@H](C)O)C(=O)N[C@@H](C)C(=O)N[C@@H]([C@@H](C)O)C(=O)N1)C(C)C)[C@@H](C)O)C(=O)N[C@@H](CC(C)C)C(=O)N[C@@H](CO)C(=O)N[C@@H](CCCNC(=N)N)C(=O)N[C@@H](CO)C(=O)NCC(=O)NCC(=O)N[C@H](C(=O)N[C@H](C(=O)N[C@@H](CCCCN)C(=O)N[C@@H](CC(N)=O)C(=O)N[C@@H](CC(N)=O)C(=O)N[C@@H](Cc1ccccc1)C(=O)N[C@H](C(=O)N1CCC[C@H]1C(=O)N[C@H](C(=O)N[C@@H](CC(N)=O)C(=O)N[C@H](C(=O)NCC(=O)N[C@@H](CO)C(=O)N[C@@H](CCCCN)C(=O)N[C@@H](C)C(=O)N[C@@H](Cc1ccccc1)C(N)=O)C(C)C)[C@@H](C)O)C(C)C)C(C)C)C(C)C` [hαCGRP] gave a maximal effect (Emax) of 84 ± 16% and an EC50 of 85.1 nM. On hCTR M367A, the maximal response (Emax) came to 78 ± 12% and the response was half-maximal at 107 nM (EC50).

The record behind these values is publication PMC5908784, “Extracellular loops 2 and 3 of the calcitonin receptor selectively modify agonist binding and efficacy” (Biochemical Pharmacology, 2018).
